Reference: patent US20230227838A1, “ENHANCED CELL SURVIVAL AGAINST BIOTIC AND ABIOTIC STRESSES THROUGH SALICYLICK ACID-INDUCED NPR1 CONDENSATES” (priority 2020, published 2023)

How the values were obtained:
[1] = molecular target: T1, endogenous NPR1 (Arabidopsis thaliana, UniProt P93002); assay: Cell fractionation of endogenous NPR1 (cytoplasmic/nuclear); type: in vivo; conditions: 6 hr, Col-0
T1 construct: from tissue; host or cells: leaf tissue of three-week-old Arabidopsis Col-0 plants
T1 sequence (P93002 1-593): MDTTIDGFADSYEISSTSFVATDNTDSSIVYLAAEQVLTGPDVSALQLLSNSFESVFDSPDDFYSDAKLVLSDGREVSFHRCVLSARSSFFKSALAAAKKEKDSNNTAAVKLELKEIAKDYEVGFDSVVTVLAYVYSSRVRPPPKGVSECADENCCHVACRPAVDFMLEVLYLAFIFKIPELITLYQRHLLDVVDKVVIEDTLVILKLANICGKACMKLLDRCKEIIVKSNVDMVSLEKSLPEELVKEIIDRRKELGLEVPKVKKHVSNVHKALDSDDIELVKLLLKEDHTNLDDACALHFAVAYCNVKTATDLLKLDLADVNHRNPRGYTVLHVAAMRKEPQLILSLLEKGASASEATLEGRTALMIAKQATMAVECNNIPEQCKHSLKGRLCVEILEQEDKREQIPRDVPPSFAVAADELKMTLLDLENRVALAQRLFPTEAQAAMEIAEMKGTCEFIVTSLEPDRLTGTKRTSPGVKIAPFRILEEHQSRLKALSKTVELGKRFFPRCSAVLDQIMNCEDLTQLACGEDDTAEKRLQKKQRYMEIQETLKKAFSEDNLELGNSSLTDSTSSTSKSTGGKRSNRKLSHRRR
Experimental: Cell fractionation. Cytoplasmic and nuclear proteins were sequentially isolated from three-week-old Arabidopsis (Col-0) plants using 1 g of leaf tissue and a sucrose gradient protocol described previously with modifications. Tissue was homogenized in lysis buffer (20 mM Tris-HCl, pH 7.5, 20 mM KCl, 2 mM EDTA, 2.5 mM MgCl2, 25% glycerol, 0.25 M Sucrose) supplemented with 100 μM MG132, EDTA-free protease inhibitor cocktail, 1 mM PMSF and 5 mM DTT. The lysate was filtered through a 70 μm filter and centrifuged at 20,000 g for 15 min at 4° C., and the supernatant was collected (cytoplasmic fraction). The pellet was washed four times with 5 ml of NRBT buffer (20 mM Tris-HCl, pH 7.4, 25% glycerol, 2.5 mM MgCl2, and 0.2% Triton X-100). After the last wash, the pellet was resuspended with 500 μl of NRB2 buffer (20 mM Tris-HCl, pH 7.5, 0.25 M Sucrose, 10 mM MgCl2, 0.5% Triton X-100) supplemented with protease inhibitor cocktail and 5 mM BME. The obtained suspension was layered at 1:1 on top of the NRB3 buffer (20 mM Tris-HCl, pH 7.5, 1.7 M Sucrose, 10 mM MgCl2, 0.5% Triton X-100) supplemented with protease inhibitor cocktail and 5 mM BME, centrifuged at 16,000 g for 45 min at 4° C. The top layer was removed and the pellet was resuspended with 200 μl of plant extraction buffer containing 1% Triton X-100, protease inhibitor cocktail and 5 mM BME (nuclear fraction). […]

[2] = test system: EDS1; assay: Stability (cycloheximide) and ubiquitination of EDS1; type: in vivo, Arabidopsis thaliana; conditions: WT
Experimental: Chemical treatment, pathogen infection and cell death assays. […] At 2 days, the bacterial colonies were scored.
Protein analysis and IP. Recombinant protein analysis was performed using transient expression in N. benthamiana, or stable over-expression in transgenic Arabidopsis, or expression in E. coli. Total protein extraction from plants was performed by homogenizing leaf tissue in the plant extraction buffer [50 mM Tris-HCl (pH 7.5), 150 mM NaCl, 5 mM EDTA, 0.2% Triton X-100, 0.2% Nonidet P-40] supplemented with 1 mM PMSF, 100 μM MG132, and EDTA-free protease inhibitor cocktail (Roche). For ubiquitinated protein analysis in plants, 100 μM of DUB (deubiquitinase) inhibitor (LifeSensors) and 10 mM NEM were added. Next, the lysates were cleared by centrifugation at 14,000 rpm for 15 min followed by filtering through a 0.2 μm filter. […] Pull-downs or IP experiments were done on total protein extracts by incubating protein samples in the lysis buffer overnight with indicated affinity tag or antibody conjugated to agarose or magnetic beads: GFP-trap agarose beads (Chromotek) for GFP fusions; RFP-trap agarose beads (Chromotek) for mCherry fusions; anti-HA magnetic beads (ThermoFisher) for HA tag fusions; anti-DYKDDDDK coupled magnetic agarose (ThermoFisher) for FLAG tag fusions; and glutathione magnetic agarose (ThermoFisher) for GST fusions. […]

In the case of O=C(O)c1ccccc1O [SA, salicylic acid], the “subcellular accumulation of endogenous NPR1” value ([1]; 1 mM SA) was “more NPR1 accumulated in the cytoplasm”, the “subcellular accumulation of endogenous NPR1” value ([1]; 0.1 and 0.5 mM SA) was “increased nuclear accumulation” and the “ubiquitination of EDS1” value ([2]; 1 mM SA for 6 hr, not in npr1-2 nor eds1-2) was “increased SA-mediated ubiquitination of EDS1”. The “amount of EDS1 in the absence of new protein synthesis” value ([2]; 1 mM SA 4 hr then 100 μM cycloheximide, 16 hours co-incubation, unchanged in npr1-2) was “significantly decreased”.
